Experimental data from patent US6930203B2, “Gelling agents or thickeners” (Applied NanoSystems B.V., priority 2001, dated 2005).

Key:
Format in all cases: physicochemical
[1] = Solvent scope of N,N′-dialkylaldaramides (1%) or N,N′-dialkylpentaramides (1%): gelation/solubility behaviour in solvents; design: key: g = gelation; s = soluble; p = precipitates; c = crystallizes; ns = not soluble; v = viscous; g* = unstable gel, precipitates; cg = crystalline gel; details: 1% gelling agent
Description: It will be understood that the use of the present gelling agents or thickeners to prepare a gel or to thicken a composition is also encompassed by the invention. As is well known, gelling behavior of compounds or compositions is highly unpredictable. […] Preferably, the gelling phenomenon is thermo reversible.
(§1) Preferred examples include aromatic and nonaromatic hydrocarbons, alcohols, ethers, esters, aldehydes, alkanoic acids, epoxides, amines, halogenated hydrocarbons, silicon oils, vegetable oils, phosphoric esters, sulfoxides, water and mixtures thereof. In order to obtain a gel, the gelling agent or thickener is preferably mixed with the composition to be transformed to a gel in an amount of between 0.01 and 50 wt. %, based on the weight of the composition. In a preferred embodiment, the mixture of the gelling agent or thickener and the composition is heated to allow for an even better gel formation or thickening. Typically, the heating will involve raising the temperature of the mixture to about 30-175° C. until a clear solution is obtained. In an alternative embodiment, the gelling agent is first dissolved in a polar or apolar solvent and then added to or sprayed into a composition or solvent to be converted into a gel.
Solvent scope of N,N′-dialkylaldaramides (1%) or N,N′-dialkylpentaramides (1%) 1-24 refers to the compounds prepared in Examples 1-23)

[2] = Solubility in several solvents tested (for NMR)
Experimental: Synthesis of didodecyl galactaramide. Diethyl galacterate (2.66 g, 10.0 mmol) was added to a solution of dodecylamine (3.75 g, 20.5 mmol) in EtOH (50 ml). After 72 hours stirring, the precipitate was filtered (yield 4.87 g, 8.9 mmol, 89%).
Synthesis of dicyclododecyl galactaramide. Diethyl galacterate (2.67 15 g, 10.0 mmol) was added to a solution of cyclododecylamine (3.78 g, 20.7 mmol) in EtOH (50 ml). After 48 hours stirring, the precipitate was filtered and washed with H2O and EtOH (yield 2.43 g, 4.5 mmol, 45%).

[3] = Cold gelation: addition of a solution of the gelling agent (10% in NMP, 0.05 ml) to an organic solution (0.5 ml); design: key: g = gelation; s = soluble; p = precipitates; c = crystallizes; ns = not soluble; v = viscous; g* = unstable gel, precipitates; cg = crystalline gel; details: for Cold gelation in 1,2-dichloroethane: 0.05 ml added to 0.5 ml 1,2-dichloroethane; for Cold gelation in Toluene: 0.05 ml added to 0.5 ml Toluene; for Cold gelation in cyclohexane: 0.05 ml added to 0.5 ml cyclohexane; for Cold gelation in methyl laurate: 0.05 ml added to 0.5 ml methyl laurate; for Cold gelation in n-butyl acetate: 0.05 ml added to 0.5 ml n-butyl acetate
Description: as §1
Addition of a solution of the gelling agent (10% in NMP, 0.05 ml) to an organic solution (0.5 ml, “cold gelation”)

[4] = Gelation of N,N′-dialkyladaramides (1%) in mixtures of solvents; design: key: g = gelation; s = soluble; p = precipitates; c = crystallizes; ns = not soluble; v = viscous; g* = unstable gel, precipitates; cg = crystalline gel; details: 1% gelling agent
Description: as §1
Gelation of N,N′-dialkyladaramides (1%) in Mixtures of Solvents

[5] = Maximum gelator concentration
Description: Maximum gelator concentration of 5 (C6-Glu-C6) and 15 (C12-Glu-C12)

Compound | Gelation/solubility behaviour in 1,2-dichloroethane [1] | Gelation/solubility behaviour in 2-octanol [1] | Gelation/solubility behaviour in 2-propanol [1] | Gelation/solubility behaviour in Cyclohexane [1] | Gelation/solubility behaviour in Dimethylsulfoxide [1] | Gelation/solubility behaviour in Ethanol [1] | Gelation/solubility behaviour in Hexadecane [1] | Gelation/solubility behaviour in Toluene [1] | Gelation/solubility behaviour in Water [1] | Gelation/solubility behaviour in n-butylacetate [1] | Gelation/solubility behaviour in p-xylene [1] | Gelation/solubility behaviour in methyl benzoic acid [1] | Gelation/solubility behaviour in silicon oil [1] | Cold gelation in 1,2-dichloroethane [3] | Cold gelation in Toluene [3] | Cold gelation in cyclohexane [3] | Cold gelation in methyl laurate [3] | Cold gelation in n-butyl acetate [3] | other results
CCCCCCCCCCCCNC(=O)[C@@H](O)[C@H](O)[C@H](O)[C@@H](O)C(=O)NCCCCCCCCCCCC [Example 14, didodecyl galactaramide] | ns | ns | ns | ns | ns | ns | ns | ns | ns | ns | ns | – | – | – | – | – | – | – | Solubility in several solvents tested [2]: low solubility
di-8-pentadecyl D-glucaramide [Example 18] | s | s | s | s | s | s | s | s | p | s | s | s | s | s | s | s | s | s | Gelation/solubility behaviour in 2-methoxyethanol [1]: s; Gelation/solubility behaviour in methyl laurate [1]: s
CCCCCCCCCCCCNC(=O)[C@@H](O)[C@@H](O)[C@H](O)[C@@H](O)C(=O)NCCCCCCCCCCCC [Example 12, didodecyl D-glucaramide] | p | ns | ns | ns | s | p | ns | ns | ns | ns | ns | – | – | p | p | p | p | p | Gelation in cyclohexane [4]: ns; Gelation in Dioxane [4]: c; Gelation in H2O [4]: ns; Gelation in dioxane/H2O 1:1 [4]: ns; Gelation in dioxane/H2O 1:2 [4]: ns; Gelation in dioxane/H2O 2:1 [4]: c; Gelation in dioxane/H2O 3:1 [4]: c
O=C(NC1CCCCCCCCCCC1)[C@@H](O)[C@H](O)[C@H](O)[C@@H](O)C(=O)NC1CCCCCCCCCCC1 [Example 17, dicyclododecyl galactaramide] | ns | ns | ns | ns | ns | ns | ns | ns | ns | ns | ns | ns | ns | – | – | – | – | – | Gelation/solubility behaviour in 2-methoxyethanol [1]: ns; Gelation/solubility behaviour in methyl laurate [1]: ns; Solubility in several solvents tested [2]: low solubility
O=C(NC1CCCCC1)[C@@H](O)[C@@H](O)[C@H](O)[C@@H](O)C(=O)NC1CCCCC1 [Example 5, dicyclohexyl D-glucaramide] | cg | cg | cg | – | cg | cg | ns | – | ns | – | – | – | – | c | c | p | c | c | Maximum gelator concentration in 1,2-dichloroethane ([5]; 1,2-dichloroethane): <5%; Maximum gelator concentration in Toluene ([5]; Toluene): <2.5%; Maximum gelator concentration in cyclohexane ([5]; cyclohexane): <5%; Maximum gelator concentration in methyl laurate ([5]; methyl laurate): <2.5%; Maximum gelator concentration in n-butylacetate ([5]; n-butylacetate): <2.5%; Maximum gelator concentration in silicon oil (Dow Corning 702) ([5]; silicon oil (Dow Corning 702)): <2.5%
CCCCCCCCCCCCNC(=O)[C@@H](O)[C@@H](O)[C@H](OC)[C@@H](O)C(=O)NCCCCCCCCCCCC [Example 21, 3-O-methyl-didodecyl D-glucaramide] | p | c | p | g | p | p | p | p | ns | c | p | p | v | – | – | – | – | – | –
CC(C)=CCCC(C)CCNC(=O)[C@@H](O)[C@@H](O)[C@H](O)[C@@H](O)C(=O)NCCC(C)CCC=C(C)C (stereo partly drawn) [Example 11, dicitronellyl D-glucaramide] | s | s | s | g* | s | s | p | p | c | p | p | – | – | – | – | – | – | – | Gelation in cyclohexane [4]: g*; Gelation in Dioxane [4]: s; Gelation in H2O [4]: c; Gelation in cyclohexane/dioxane 1:1 ([4]; cyclohexane/dioxane 1:1): s; Gelation in dioxane/H2O 1:1 [4]: p; Gelation in dioxane/H2O 1:2 [4]: p; Gelation in dioxane/H2O 2:1 [4]: s; Gelation in dioxane/H2O 3:1 [4]: s
CO[C@@H]([C@H](O)[C@H](O)C(=O)NC1CCCCCCCCCCC1)[C@@H](O)C(=O)NC1CCCCCCCCCCC1 [Example 22, 3-O-methyl-dicyclododecyl D-glucaramide] | p | p | p | g | p | p | ns | p | – | p | p | – | – | – | – | – | – | – | –
O=C(NC1CCCCCCCCCCC1)[C@@H](O)[C@@H](O)[C@H](O)[C@H](O)C(=O)NC1CCCCCCCCCCC1 [Example 16, dicyclododecyl D-mannaramide] | c | s | cg | ns | p | p | ns | ns | ns | ns | ns | – | – | – | – | – | – | – | –
